Consider `COc1ccc2c(CN(C)C)cc(=O)oc2c1`, for which the melting point stood at 97 °C.
The compound `CNCc1cc(=O)oc2cc(OC)ccc12` yielded a melting point of 109 to 109.5 °C.

What is called melting point is the temperature of the solid-liquid transition.
